Assay results: patent publication US20240400604A1, “NUCLEOSIDE TRIPHOSPHATE PHOTOAFFINITY PROBE, METHOD FOR PREPARING SAME, AND APPLICATIONS THEREOF” (SHANDONG UNIVERSITY, priority 2023, published 2024)

Key:
[1] = system: GTP-binding proteins in HEK 293T cell lysates; test: Proteomic LC-MS/MS analysis of HEK 293T cell lysate labeled with GTP probes; parameters: species or system human
Method: Under optimized conditions, HEK 293T cell lysates were labeled using the GTP photoaffinity probes. Peptide samples were prepared via the On-Beads enzymatic digestion method for proteomic study. Approximately 1 mg of proteins was labeled with 0.1 mM GTP probe and irradiated with 365-nm UV light for 30 min. To the solution were added freshly prepared tris-(2-carboxyethyl)phosphine (TCEP) until its concentration reached 1 mM, and a CuAAC reaction mixture to reach a final concentration of 1 mM CuSO4, 0.1 mM tris[(1-benzyl-1H-1,2,3-triazol-4-yl)methyl]amine (TBTA), and 0.5 mM biotin-PEG3-azide (for GTP-O probe labeled samples), or 0.5 mM biotin-DADPS-azide (for GTP-N probe labeled samples). The mixture was vortexed at room temperature for 2 hours and then precipitated in ice-cold methanol overnight.
The precipitated proteins were dissolved in 100 μL 4% SDS buffer (4% SDS, 150 mM NaCl, 50 mM HEPES, pH=7.4), and diluted with 900 μL SDS-free HEPES buffer (150 mM NaCl, 50 mM HEPES, pH=7.4). High-capacity streptavidin beads (50 μL per sample) were washed three times with 20 times volume of wash buffer (150 mM sodium chloride, 50 mM HEPES, pH=7.4) before adding to the samples. After incubation on a rotary shaker at room temperature for 2 hours, non-specifically bound proteins were washed away in a centrifugal filtration column using 1× PBS containing 1% SDS, 10× PBS, 1× PBS, water, and 50 mM ammonium bicarbonate solution with 8 M urea, each wash using 1 mL of solution for five times. The beads were transferred to a centrifuge tube using 50 mM ammonium bicarbonate solution containing 8 M urea and resuspended with 500 μL of this solution. The disulfide bonds were reduced by adding 20 mM TCEP and incubating at 37° C. for 1 hour, and then alkylated with 50 mM iodacetamide at room temperature in the dark for 30 minutes. After centrifugation at 3000 rpm for 2 minutes, the supernatant was gently removed. The beads were washed with 25 mM ammonium bicarbonate three times, resuspended in 100 μL 25 mM ammonium bicarbonate, and incubated with 1 μg of MS-grade trypsin (1 μg/μL) at 37° C. for 18 hrs.
The beads were washed with 200 μL of 25 mM ammonium bicarbonate solution, then centrifuged at 12000 rpm for 2 minutes to collect the supernatant. The procedure was repeated 6 times, and the supernatants were combined to obtain sample 1 (peptides without probe modification). For GTP-O probe labeled samples, the beads were resuspended in 200 μL of 70% acetonitrile solution containing 1% trifluoroacetic acid, vortexed for 5 minutes, then centrifuged at 12000 rpm for 2 minutes to collect the supernatant. The procedure was repeated 5 times, and the supernatants were combined to obtain sample 2 (containing probe-modified peptides). For GTP-N probe labeled samples, the beads were resuspended in 100 μL of 10% formic acid, incubated on a rotary shaker at room temperature for 30 minutes, then centrifuged at 12000 rpm for 2 minutes to collect the supernatant. The procedure was repeated 3 times, and the supernatants were combined. Trifluoroacetic acid was added to a final concentration of 1%, and incubated at 37° C. for 30 minutes to obtain sample 2. The peptide solutions were dried with a centrifugal concentrator and desalted using C18 tips, then frozen at −80° C. until LC-MS/MS detection. Samples were dissolved in 20 μL of pure water, 4 μL of sample 1 and 8 μL of sample 2 were injected for analysis.
An EASY-nLC 1200 liquid chromatography coupled with a Q-Exactive Orbitrap mass spectrometer was employed for LC-MS/MS analysis. A homemade C18 capillary column (inner diameter 75 μm, column length 18 cm) packed with Reprosil-Pur120 C18-AQ (Dr. maisch, particle size […]) was utilized as the separation column. The precolumn (inner diameter 150 μm, column length 4 cm) was packed with Reprosil-Pur120 C18-AQ (Dr. maisch, particle size 5 μm,). The mobile phase A was 0.1% formic acid, while mobile phase B was 0.1% formic acid in 80% acetonitrile, and the flow rate was 300 nL/min. […]

[2] = system: GTP-binding proteins in HEK 293T cell lysates; test: In-gel fluorescence imaging of HEK 293T cell lysate labeled with the GTP probes; conditions: competitor incubated on ice 10 minutes before probe; 50 μM GTP-O probe (FIG. 11)
Method: Appropriate amount cells were incubated on ice for 30 min in 1% lysis buffer (1% Triton X-100, 50 mM HEPES (pH 7.4), 150 mM NaCl, supplemented with phosphatase inhibitor A, phosphatase inhibitor B, and protease inhibitor right before use) at 5-10 times the cell volume. Vortexing for 5 seconds every 10 minutes. The cell lysates were centrifuged at 12,000 rpm at 4° C. for 30 min, and the supernatants were passed through an Amersham NAP-5 column to remove endogenous nucleosides. The proteins were quantified using a Bradford protein assay kit. Approximately 100 μg protein was diluted with 0.1% lysis buffer (0.1% Triton X-100, 50 mM HEPES, 150 mM sodium chloride). To the solution was added 1 mM magnesium chloride, the GTP probe and competitors to designated concentrations. The final volume for the reaction was 100 μL and the final protein concentration was […]. After incubated on ice, the solution was irradiated with 365-nm UV light for 30 min. To the solution were added freshly prepared tris-(2-carboxyethyl)phosphine (TCEP) until its concentration reached 1 mM, and a CuAAC reaction mixture to reach a final concentration of 1 mM CuSO4, 0.1 mM tris[(1-benzyl-1H-1,2,3-triazol-4-yl)methyl]amine (TBTA), and 0.1 mM rhodamine β-PEG3-azide. The mixture was incubated at room temperature for 2 hrs and then precipitated in a solution of chloroform: methanol: water (4:3:1, v/v). After washing with cold methanol and air dried, the protein pellet was dissolved in 30 μL 4% SDS buffer (4% SDS, 50 mM HEPES (pH 7.4), 150 mM NaCl, 50 mM Trolamine). The protein concentration was determined using a BCA protein assay kit. A solution of approximately 20 μg proteins was added 4×loading buffer (0.25M Trometamol, pH=6.8, 4% SDS, 40% Glycerol, 0.02% bromophenol blue, add 200 μL 2-Mercaptoethanol to 800 μL buffer right before use), boiled at 95° C. for 5 min and loaded onto an SDS-PAGE gel (4% stacking gel, 10% separating gel). Then perform SDS-PAGE separation at a constant voltage of 90 V for about 110 minutes. At the end of electrophoresis, cut the separation gel and imaged with an Amersham Imager 600 (GE Healthcare) at 520 nm. The gel was then stained with Coomassie Brilliant Blue staining solution (0.1% Coomassie brilliant blue, 10% acetic acid, 50% methanol) for 30 min and destained with destaining solution (10% acetic acid, 30% methanol) to remove background color.

[3] = system: ATP-binding proteins in HEK 293T cell lysates; test: In-gel fluorescence imaging of HEK 293T cell lysates labeled with the ATP-N probe; conditions: 10 μM ATP-N probe, FIG. 23c
[4] = target: T1, PLCG1 (Homo sapiens, UniProt P19174); test: EHT 1864 competitive GTP-N probe labeling of HEK 293T cell lysates, LC-MS/MS; assay type: binding; conditions: GTP-N probe 20 μM; EHT 1864 20, 40, 100, 200 μM
T1 construct: the GTP-N probe was used for protein labeling of HEK 293T cell lysates; endogenous in cells; host or cells: HEK 293T cell lysate
T1 sequence (P19174 1-1290): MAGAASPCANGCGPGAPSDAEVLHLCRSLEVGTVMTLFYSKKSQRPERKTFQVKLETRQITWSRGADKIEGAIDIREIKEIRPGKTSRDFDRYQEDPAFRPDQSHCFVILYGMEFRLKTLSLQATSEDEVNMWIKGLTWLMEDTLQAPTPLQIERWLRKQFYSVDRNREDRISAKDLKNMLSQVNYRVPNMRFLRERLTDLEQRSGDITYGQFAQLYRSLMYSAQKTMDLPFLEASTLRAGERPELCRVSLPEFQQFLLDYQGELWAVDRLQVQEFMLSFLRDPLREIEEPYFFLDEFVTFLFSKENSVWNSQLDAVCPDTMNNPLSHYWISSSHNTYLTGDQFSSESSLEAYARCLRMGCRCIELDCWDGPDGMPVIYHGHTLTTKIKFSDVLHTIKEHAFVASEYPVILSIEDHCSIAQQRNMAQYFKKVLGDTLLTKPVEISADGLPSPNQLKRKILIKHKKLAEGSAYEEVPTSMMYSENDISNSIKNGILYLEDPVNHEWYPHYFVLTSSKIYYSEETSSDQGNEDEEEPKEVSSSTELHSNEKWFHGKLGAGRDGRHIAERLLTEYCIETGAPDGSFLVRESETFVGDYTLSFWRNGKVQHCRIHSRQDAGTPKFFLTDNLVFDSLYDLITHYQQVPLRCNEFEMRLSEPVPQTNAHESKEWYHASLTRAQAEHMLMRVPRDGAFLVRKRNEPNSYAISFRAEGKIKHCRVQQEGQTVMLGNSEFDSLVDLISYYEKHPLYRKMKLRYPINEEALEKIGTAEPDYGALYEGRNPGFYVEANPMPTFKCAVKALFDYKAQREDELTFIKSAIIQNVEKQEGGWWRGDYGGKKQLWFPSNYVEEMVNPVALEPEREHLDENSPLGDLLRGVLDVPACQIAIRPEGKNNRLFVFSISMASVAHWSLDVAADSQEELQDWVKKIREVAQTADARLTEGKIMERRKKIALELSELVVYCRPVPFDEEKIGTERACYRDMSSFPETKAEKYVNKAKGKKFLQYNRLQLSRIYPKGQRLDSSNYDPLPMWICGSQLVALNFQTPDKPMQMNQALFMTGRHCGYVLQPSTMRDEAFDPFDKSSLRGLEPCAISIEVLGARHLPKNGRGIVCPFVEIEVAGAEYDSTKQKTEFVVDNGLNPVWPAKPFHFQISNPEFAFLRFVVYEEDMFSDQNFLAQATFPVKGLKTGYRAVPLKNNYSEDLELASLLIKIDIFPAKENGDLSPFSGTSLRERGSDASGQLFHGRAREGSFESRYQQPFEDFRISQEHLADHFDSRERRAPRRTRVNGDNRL
Method: (§1) Using the On-Beads digestion method, the GTP-N probe was used for protein labeling of HEK 293T cell lysates. For the competition experiments, a GTP-competitive inhibitor EHT 1864 was added before probe labeling to inhibit probe binding with targeted GTP-binding proteins. The final concentration of the probe was 20 μM, and EHT 1864 was used at concentrations of 20 μM, 40 μM, 100 μM, and 200 μM, respectively. The inhibitor was pre-incubated with cell lysates on ice for 10 minutes, followed by the GTP-N probe labeling, sample preparation, and LC-MS/MS analysis, same as in Section 1.3 of Example 3.

[5] = target: T2, ACTR2 (Homo sapiens, UniProt P61160); test: as above; assay type: binding; conditions: GTP-N probe 20 μM; EHT 1864 20, 40, 100, 200 μM
T2 construct: endogenous in cells; host or cells: HEK 293T cell lysate
Method: as §1

[6] = target: T3, ACTR3 (Homo sapiens, UniProt P61158); test: as above; assay type: binding; conditions: GTP-N probe 20 μM; EHT 1864 20, 40, 100, 200 μM
T3 construct: the GTP-N probe was used for protein labeling of HEK 293T cell lysates; endogenous in cells; host or cells: HEK 293T cell lysate
Method: as §1

[7] = three biological replicates, 0.1 mM probe, control probe = GTP-ctrl probe

## C#CCCC1(CCOP(=O)(O)OP(=O)(O)OP(=O)(O)OC[C@H]2O[C@@H](n3cnc4c(=O)[nH]c(N)nc43)C(O)[C@H]2O)N=N1 (stereo partly shown) [GTP-O probe]
[1]; LC-MS/MS of sample 2 (probe-modified peptides)
  probe-modified sites on labeled proteins: not detected
[1]; [7]
  GTP-binding proteins identified: 95
  total proteins identified: 1808

## Nc1ncnc2c1ncn2[C@@H]1O[C@H](COP(=O)(O)OP(=O)(O)OP(=O)(O)O)[C@@H](O)[C@H]1O [ATP, adenosine triphosphate]
[2]
  competition effect on probe labeling (fluorescence of labeled bands): non-specific competition

## Nc1nc2c(ncn2[C@@H]2O[C@H](COP(=O)(O)OP(=O)(O)OP(=O)(O)O)[C@@H](O)[C@H]2O)c(=O)[nH]1 [GTP, guanosine triphosphate]
[2]
  competition effect on probe labeling (fluorescence of labeled bands): significantly decrease the fluorescence intensity of several labeled proteins bands

## Nc1ncnc2c1ncn2[C@@H]1O[C@H](COP(=O)(O)O)[C@@H](O)[C@H]1O [AMP, reference compound]
[3]
  competition effect on ATP-N probe labeling: not significant

## O=c1cc(CN2CCOCC2)occ1OCCCCCSc1ccnc2cc(C(F)(F)F)ccc12 [EHT 1864]
[4]
  protein intensity of PLCG1 in competition groups: overall decreased protein intensities
[5]
  protein intensity of ACTR2 in competition groups: overall decreased protein intensities
[6]
  protein intensity of ACTR3 in competition groups: overall decreased protein intensities

## Nc1nc2c(ncn2[C@@H]2O[C@H](COP(=O)([O-])[O-])[C@@H](O)[C@H]2O)c(=O)[nH]1.[Na+].[Na+] [GMP, guanosine 5′-monophosphate disodium salt]
[2]
  competition effect on probe labeling (fluorescence of labeled bands): non-specific competition
